Legend:
[1] = Cmax in human at 6.7 mg/kg, po qd for 6 days administered under fed condition measured after 6 days; format: ADME, organism-based; design: dose 6.7 mg/kg, route oral; conditions: in vivo
[2] = AUC (0 to 24 hrs) in human at 6.7 mg/kg, po administered as single dose under fed condition measured after 1 day; format: ADME, organism-based; design: time < 24 hr, dose 6.7 mg/kg, route oral; conditions: plasma
[3] = AUC (0 to 24 hrs) in monkeypox virus infected cynomolgus monkey at 10 mg/kg, po qd for 14 days administered under fed condition measured after 14 days; format: ADME, organism-based, Macaca fascicularis; design: time < 24 hr, dose 10 mg/kg, route oral; conditions: plasma
[4] = Cmax in human at 13.3 mg/kg, po qd qd for 6 days administered under fed condition measured after 6 days; format: ADME, organism-based; design: dose 13.3 mg/kg, route oral; conditions: in vivo
[5] = Cmax in human at 4.2 mg/kg, po qd for 21 days administered under fed condition measured after 21 days; format: ADME, organism-based; design: dose 4.2 mg/kg, route oral; conditions: in vivo
[6] = AUC (0 to 24 hrs) in monkeypox virus infected cynomolgus monkey at 20 mg/kg, po administered as single dose under fed condition measured after 1 day; format: ADME, organism-based, Macaca fascicularis; design: time < 24 hr, dose 20 mg/kg, route oral; conditions: plasma
[7] = Cmax in monkeypox virus infected cynomolgus monkey at 10 mg/kg, po qd for 14 days administered under fed condition measured after 7 days; format: ADME, organism-based, Macaca fascicularis; design: dose 10 mg/kg, route oral; conditions: in vivo
[8] = AUC (0 to 24 hrs) in monkeypox virus infected cynomolgus monkey at 10 mg/kg, po qd for 14 days administered under fed condition measured after 7 days; format: ADME, organism-based, Macaca fascicularis; design: time < 24 hr, dose 10 mg/kg, route oral; conditions: plasma
[9] = AUC (0 to 24 hrs) in human at 13.3 mg/kg, po qd for 6 days administered under fed condition measured after 6 days; format: ADME, organism-based; design: time < 24 hr, dose 13.3 mg/kg, route oral; conditions: plasma
[10] = AUC (0 to 24 hrs) in monkeypox virus infected cynomolgus monkey at 30 mg/kg, po administered as single dose under fed condition measured after 1 day; format: ADME, organism-based, Macaca fascicularis; design: time < 24 hr, dose 30 mg/kg, route oral; conditions: plasma
[11] = Cmax in monkeypox virus infected cynomolgus monkey at 30 mg/kg, po qd for 14 days administered under fed condition measured after 14 days; format: ADME, organism-based, Macaca fascicularis; design: dose 30 mg/kg, route oral; conditions: in vivo
[12] = AUC (0 to 24 hrs) in monkeypox virus infected cynomolgus monkey at 30 mg/kg, po qd for 14 days administered under fed condition measured after 14 days; format: ADME, organism-based, Macaca fascicularis; design: time < 24 hr, dose 30 mg/kg, route oral; conditions: plasma
[13] = AUC (0 to 24 hrs) in monkeypox virus infected cynomolgus monkey at 30 mg/kg, po qd for 14 days administered under fed condition measured after 7 days; format: ADME, organism-based, Macaca fascicularis; design: time < 24 hr, dose 30 mg/kg, route oral; conditions: plasma
[14] = AUC (0 to 24 hrs) in human at 6.7 mg/kg, po qd for 21 days administered under fed condition measured after 21 days; format: ADME, organism-based; design: time < 24 hr, dose 6.7 mg/kg, route oral; conditions: plasma
[15] = Cmax in monkeypox virus infected cynomolgus monkey at 30 mg/kg, po qd for 14 days administered under fed condition measured after 7 days; format: ADME, organism-based, Macaca fascicularis; design: dose 30 mg/kg, route oral; conditions: in vivo
[16] = Cmax in monkeypox virus infected cynomolgus monkey at 30 mg/kg, po administered as single dose under fed condition measured after 1 day; format: ADME, organism-based, Macaca fascicularis; design: dose 30 mg/kg, route oral; conditions: in vivo
[17] = Cmax in human at 4.2 mg/kg, po qd for 6 days administered under fed condition measured after 6 days; format: ADME, organism-based; design: dose 4.2 mg/kg, route oral; conditions: in vivo
[18] = Cmax in human at 4.2 mg/kg, po administered as single dose under fed condition measured after 1 day; format: ADME, organism-based; design: dose 4.2 mg/kg, route oral; conditions: in vivo
[19] = AUC (0 to 24 hrs) in human at 13.3 mg/kg, po administered as single dose under fed condition measured after 1 day; format: ADME, organism-based; design: time < 24 hr, dose 13.3 mg/kg, route oral; conditions: plasma
[20] = Cmax in monkeypox virus infected cynomolgus monkey at 10 mg/kg, po administered as single dose under fed condition measured after 1 day; format: ADME, organism-based, Macaca fascicularis; design: dose 10 mg/kg, route oral; conditions: in vivo
[21] = AUC (0 to 24 hrs) in human at 13.3 mg/kg, po qd for 21 days administered under fed condition measured after 21 days; format: ADME, organism-based; design: time < 24 hr, dose 13.3 mg/kg, route oral; conditions: plasma
[22] = AUC (0 to 24 hrs) in human at 4.2 mg/kg, po qd for 21 days administered under fed condition measured after 21 days; format: ADME, organism-based; design: time < 24 hr, dose 4.2 mg/kg, route oral; conditions: plasma
[23] = Cmax in human at 6.7 mg/kg, po administered as single dose under fed condition measured after 1 day; format: ADME, organism-based; design: dose 6.7 mg/kg, route oral; conditions: in vivo
[24] = Cmax in human at 13.3 mg/kg, po administered as single dose under fed condition measured after 1 day; format: ADME, organism-based; design: dose 13.3 mg/kg, route oral; conditions: in vivo
[25] = AUC (0 to 24 hrs) in human at 4.2 mg/kg, po qd for 6 days administered under fed condition measured after 6 days; format: ADME, organism-based; design: time < 24 hr, dose 4.2 mg/kg, route oral; conditions: plasma
[26] = AUC (0 to 24 hrs) in human at 4.2 mg/kg, po administered as single dose under fed condition measured after 1 day; format: ADME, organism-based; design: time < 24 hr, dose 4.2 mg/kg, route oral; conditions: plasma
[27] = AUC (0 to 24 hrs) in human at 6.7 mg/kg, po qd for 6 days administered under fed condition measured after 6 days; format: ADME, organism-based; design: time < 24 hr, dose 6.7 mg/kg, route oral; conditions: plasma
[28] = AUC (0 to 24 hrs) in monkeypox virus infected cynomolgus monkey at 10 mg/kg, po administered as single dose under fed condition measured after 1 day; format: ADME, organism-based, Macaca fascicularis; design: time < 24 hr, dose 10 mg/kg, route oral; conditions: plasma
[29] = Cmax in monkeypox virus infected cynomolgus monkey at 20 mg/kg, po administered as single dose under fed condition measured after 1 day; format: ADME, organism-based, Macaca fascicularis; design: dose 20 mg/kg, route oral; conditions: in vivo
[30] = Cmax in human at 13.3 mg/kg, po qd for 21 days administered under fed condition measured after 21 days; format: ADME, organism-based; design: dose 13.3 mg/kg, route oral; conditions: in vivo
[31] = Cmax in human at 6.7 mg/kg, po qd for 21 days administered under fed condition measured after 21 days; format: ADME, organism-based; design: dose 6.7 mg/kg, route oral; conditions: in vivo
[32] = Cmax in monkeypox virus infected cynomolgus monkey at 10 mg/kg, po qd for 14 days administered under fed condition measured after 14 days; format: ADME, organism-based, Macaca fascicularis; design: dose 10 mg/kg, route oral; conditions: in vivo

O=C(NN1C(=O)[C@@H]2[C@@H]3C=C[C@@H]([C@H]4C[C@@H]34)[C@@H]2C1=O)c1ccc(C(F)(F)F)cc1 [TECOVIRIMAT]
Cmax [1]: 1.3 µg/mL
AUC(0-t) at 24 h [2]: 13.1 µg·h/mL
AUC at 24 h [3]: 13.5 µg·h/mL
Cmax [4]: 2.34 µg/mL
Cmax [5]: 1.1 µg/mL
AUC(0-t) at 24 h [6]: 18.4 µg·h/mL
Cmax [7]: 1.02 µg/mL
AUC at 24 h [8]: 12.6 µg·h/mL
AUC at 24 h [9]: 23.4 µg·h/mL
AUC(0-t) at 24 h [10]: 18.1 µg·h/mL
Cmax [11]: 1.19 µg/mL
AUC at 24 h [12]: 15.8 µg·h/mL
AUC at 24 h [13]: 20.7 µg·h/mL
AUC at 24 h [14]: 16.2 µg·h/mL
Cmax [15]: 1.51 µg/mL
Cmax [16]: 1.15 µg/mL
Cmax [17]: 1.21 µg/mL
Cmax [18]: 0.985 µg/mL
AUC(0-t) at 24 h [19]: 21 µg·h/mL
Cmax [20]: 1.01 µg/mL
AUC at 24 h [21]: 22.7 µg·h/mL
AUC at 24 h [22]: 10.1 µg·h/mL
Cmax [23]: 1.39 µg/mL
Cmax [24]: 2.28 µg/mL
AUC at 24 h [25]: 11.9 µg·h/mL
AUC(0-t) at 24 h [26]: 9.1 µg·h/mL
AUC at 24 h [27]: 15.4 µg·h/mL
AUC(0-t) at 24 h [28]: 13.7 µg·h/mL
Cmax [29]: 1.27 µg/mL
Cmax [30]: 2.44 µg/mL
Cmax [31]: 1.46 µg/mL
Cmax [32]: 1.08 µg/mL

Reference: ChEMBL document CHEMBL1649160, “ST-246 antiviral efficacy in a nonhuman primate monkeypox model: determination of the minimal effective dose and human dose justification” (Antimicrob Agents Chemother, 2009)
